The values below come from PubChem BioAssay (NCI).

Among the test systems are HS 578T breast; SW-620 colon; MDA-MB-231 breast; EKVX NSCLC; SR leukemia; UACC-257 melanoma; OVCAR-3 ovarian; HOP-62 NSCLC; BT-549 breast; MALME-3M melanoma.
What all share (experiment): NCI-60 cell line screen, 48 h

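Exposure lasted 48 hours, with cells grown in 96-well plates and compounds tested at five concentrations. At the TGI there is no net growth.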 Where a SMILES comes first, the peptide text is derived from it. [ ]: non-standard residue; d: D form. The star is where a group is joined. AllylGly = C=CC[CH](N)C(=O)O; Boc = CC(C)(C)OC(=O)*; OtBu = CC(C)(C)O*

In the case of `C=CCC(NC(=O)C(CC(=O)OC(C)(C)C)NC(=O)OC(C)(C)C)C(=O)OC` (stereo not given) (Boc-Asp(OtBu)-[AllylGly]-OMe; configuration not given here), the TGI with HS 578T breast is more than 100 µM; in the test on SW-620 colon, more than 100 µM; in the test with MDA-MB-231 breast, more than 100 µM; in the test on EKVX NSCLC, more than 100 µM; in the test on SR leukemia, more than 100 µM; with UACC-257 melanoma it was 58.1 µM. For the same molecule, the TGI with OVCAR-3 ovarian was 61.4 µM; in the test on HOP-62 NSCLC, more than 100 µM; with BT-549 breast, more than 100 µM; in the test with MALME-3M melanoma, 3.04 µM.

On to `CC(=O)C(=[N+]=[N-])C(=O)OC(C)(C)C#N`, for which the TGI in the test on HS 578T breast, in the test on SW-620 colon, in the test on MDA-MB-231 breast, in the test with EKVX NSCLC, in the test on SR leukemia and with UACC-257 melanoma was more than 10 µM in each case. The TGI in the test with OVCAR-3 ovarian, in the test on HOP-62 NSCLC, with BT-549 breast and in the test on MALME-3M melanoma was more than 10 µM each time.

Turning to `CCOc1ccc(/C(O)=C/c2nc3ccccc3nc2/C=C(\O)c2ccc(OCC)cc2)cc1`, the TGI is more than 100 µM with HS 578T breast; more than 100 µM with SW-620 colon; more than 100 µM in the test on MDA-MB-231 breast; more than 100 µM with EKVX NSCLC; 26.6 µM in the test with SR leukemia; more than 100 µM with UACC-257 melanoma. Besides, the TGI with OVCAR-3 ovarian, in the test on HOP-62 NSCLC, with BT-549 breast and in the test with MALME-3M melanoma was more than 100 µM each time.

For `O=C(NNC(=S)Nc1ccccc1)c1ccccc1Nc1ccccc1C(=O)NNC(=S)Nc1ccccc1`, the TGI in the test with HS 578T breast is 74.9 µM; with SW-620 colon, more than 100 µM; in the test on MDA-MB-231 breast, 61.3 µM; in the test on EKVX NSCLC it was 85.3 µM; in the test on SR leukemia, more than 100 µM; in the test on UACC-257 melanoma, 56.7 µM. Also, the TGI with OVCAR-3 ovarian turned out to be 38.4 µM; with HOP-62 NSCLC, 60.7 µM; with BT-549 breast, 57.7 µM; with MALME-3M melanoma it was 52.3 µM.

Consider `Cc1c(CCOC=O)c(=O)[nH]c2nncn12`, for which the TGI in the test on HS 578T breast, in the test with SW-620 colon, in the test with MDA-MB-231 breast, in the test on EKVX NSCLC, in the test on SR leukemia and in the test on UACC-257 melanoma was more than 100 µM each time. Moreover, the TGI in the test on OVCAR-3 ovarian, in the test on HOP-62 NSCLC, with BT-549 breast and with MALME-3M melanoma was more than 100 µM each time.

`O=C/C(=C(/Br)I)c1ccccc1`: the TGI with HS 578T breast is more than 60 µM; in the test with SW-620 colon, 2.75 µM; in the test on MDA-MB-231 breast, 7.44 µM; in the test on EKVX NSCLC it was 28.6 µM; in the test on SR leukemia it was 2.3 µM; in the test on UACC-257 melanoma it was 17.8 µM. The TGI in the test on OVCAR-3 ovarian worked out at 7.65 µM; with HOP-62 NSCLC it was 29.8 µM; in the test with BT-549 breast it was 4.86 µM; in the test on MALME-3M melanoma it was 5.87 µM.

In the case of `Cc1cccc2c1Oc1ccccc1C2NC(=O)c1ccc([N+](=O)[O-])cc1` (stereo not given), the TGI is 82.6 µM with HS 578T breast; more than 100 µM with SW-620 colon; more than 100 µM in the test with MDA-MB-231 breast; more than 100 µM in the test on EKVX NSCLC; more than 100 µM in the test with SR leukemia; more than 100 µM in the test on UACC-257 melanoma. For the same molecule, the TGI in the test with OVCAR-3 ovarian, in the test on HOP-62 NSCLC, in the test on BT-549 breast and in the test with MALME-3M melanoma was more than 100 µM throughout.

Turning to `CCc1n[nH]c(=O)n1/N=C/c1ccccc1Cl`, the TGI with HS 578T breast was 10.2 µM; with SW-620 colon, more than 100 µM; in the test on MDA-MB-231 breast it was more than 100 µM; in the test on EKVX NSCLC, 29.4 µM; with SR leukemia, more than 100 µM; with UACC-257 melanoma, more than 100 µM. Moreover, the TGI in the test with OVCAR-3 ovarian, with HOP-62 NSCLC, in the test on BT-549 breast and with MALME-3M melanoma was more than 100 µM each time.

Turning to `O=c1cc(N2CCOCC2)[nH]c(=O)n1-c1cccc(C(F)(F)F)c1`, the TGI in the test on HS 578T breast was more than 100 µM; with SW-620 colon, more than 100 µM; in the test with MDA-MB-231 breast, 57 µM; with EKVX NSCLC, more than 100 µM; with SR leukemia it was more than 100 µM; in the test with UACC-257 melanoma it was more than 100 µM. The TGI in the test on OVCAR-3 ovarian, with HOP-62 NSCLC, with BT-549 breast and in the test with MALME-3M melanoma was more than 100 µM in each case.

As for `CC(C)(C)N(Cc1ccc2c(c1)OCO2)C(=O)/C=C\S(=O)c1ccccc1` (stereo not given), the TGI with HS 578T breast was 6.36 µM; in the test on SW-620 colon, 17.5 µM; in the test with MDA-MB-231 breast it was 9.75 µM; in the test on EKVX NSCLC, 20.9 µM; in the test with SR leukemia it was more than 27.7 µM; in the test on UACC-257 melanoma it was 12.5 µM. In addition, the TGI in the test with OVCAR-3 ovarian stood at 7.4 µM; in the test on HOP-62 NSCLC, 17.7 µM; with BT-549 breast, 10.3 µM; with MALME-3M melanoma, 13.9 µM.

Take `CN1CN(c2ccccc2)C2(CCN(CCCSc3ccccc3NC(=O)/C=C/c3ccccc3)CC2)C1=O`: the TGI stood at 15 µM in the test on HS 578T breast; 26.3 µM with SW-620 colon; 3.32 µM in the test on MDA-MB-231 breast; 44.5 µM in the test with EKVX NSCLC; 12.3 µM in the test with SR leukemia; 3.34 µM in the test with UACC-257 melanoma. The TGI in the test with OVCAR-3 ovarian is 13.3 µM; in the test on HOP-62 NSCLC, 5.8 µM; with BT-549 breast it was 12 µM; in the test with MALME-3M melanoma, 4.77 µM.

Turning to `CC1(c2nc3cc(Cl)c(Cl)cc3[nH]2)CCC(CO)C(C)(C)O1` (stereo not given), the TGI with HS 578T breast is 53.9 µM; with SW-620 colon it was more than 100 µM; in the test on MDA-MB-231 breast, 77.6 µM; in the test with EKVX NSCLC, 87 µM; in the test with SR leukemia it was more than 100 µM; with UACC-257 melanoma, more than 100 µM. The TGI with OVCAR-3 ovarian was 74.3 µM; in the test with HOP-62 NSCLC, more than 100 µM; in the test with BT-549 breast it was 44.8 µM; in the test on MALME-3M melanoma it was 84 µM.

Consider `O=[N+]([O-])c1ccc(C2=NOC(c3ccccc3F)N2C23CC4CC(CC(C4)C2)C3)cc1` (stereo not given), for which the TGI in the test on HS 578T breast, in the test with SW-620 colon, with MDA-MB-231 breast, in the test with EKVX NSCLC, in the test on SR leukemia and with UACC-257 melanoma was more than 100 µM in each case. In addition, the TGI with OVCAR-3 ovarian, in the test on HOP-62 NSCLC, with BT-549 breast and with MALME-3M melanoma was more than 100 µM in each case.

Consider `S=C(N/N=C(/c1ccccc1)c1ccccn1)Nc1ccccc1Cl`, for which the TGI in the test with HS 578T breast came to 24 µM; in the test with SW-620 colon, 14.8 µM; with MDA-MB-231 breast, 2.19 µM; in the test on EKVX NSCLC it was 9.92 µM; with SR leukemia, 3.04 µM; in the test with UACC-257 melanoma, 12.6 µM. For the same molecule, the TGI was 11.2 µM with OVCAR-3 ovarian, 16.6 µM in the test on HOP-62 NSCLC, 17.3 µM in the test with BT-549 breast and 12.2 µM in the test with MALME-3M melanoma.

`N#Cc1c(-c2ccc([N+](=O)[O-])cc2)cc(-c2ccc(Nc3ccnc4cc(C(F)(F)F)ccc34)cc2)nc1N`: the TGI was 66.1 µM with HS 578T breast; 59.2 µM with SW-620 colon; 41.7 µM in the test on MDA-MB-231 breast; more than 93.3 µM in the test with EKVX NSCLC; more than 20 µM in the test on SR leukemia; more than 85.2 µM in the test on UACC-257 melanoma. The TGI was 29.3 µM in the test on OVCAR-3 ovarian, 51.3 µM with HOP-62 NSCLC, more than 75.6 µM in the test with BT-549 breast and more than 62.8 µM with MALME-3M melanoma.
